ChEMBL document CHEMBL3588748, “Original 2-(3-Alkoxy-1H-pyrazol-1-yl)azines Inhibitors of Human Dihydroorotate Dehydrogenase (DHODH)” (J Med Chem, 2015)
Activity calls are given as the source filed them. The rule behind the calls is not given here.

Tests used:
Plasmodium falciparum = test: Antiplasmodial activity against Plasmodium falciparum 3D7 assessed as inhibition of parasite growth at 8.66 ug/ml by SYBR Green I dye based assay; assay type: functional, organism-based

Description for Measles morbillivirus: Antiviral activity against measles virus rMV2/Luc infected in HEK-293T cells assessed as inhibition of virus growth incubated for 24 hrs by firefly luciferase reporter gene assay

Row | Compound | pMIC50 (Measles morbillivirus) | growth inhibition (GI) (Plasmodium falciparum)
1 | CCOc1nn(-c2cccc(F)n2)c(C)c1Cc1ccccc1 | <5 | inactive
2 | COc1cnc(-n2nc(OC(C)C)c(Oc3c(F)cccc3F)c2C)cn1 | 6.1 | inactive
3 | COc1cc(C2CC2)cnc1-n1nc(OC(C)C)c(Oc2c(F)cccc2F)c1C | 7.5 | inactive
4 | Cc1c(Oc2c(F)cccc2F)c(OC(C)C)nn1-c1cnc(C(F)(F)F)cn1 | 5.3 | inactive
5 | Cc1ccc(-n2nc(OC(C)C)c(Oc3c(F)cccc3F)c2C)cn1 |  | inactive
6 | CCOc1nn(-c2ccc(C3CC3)nn2)c(C)c1Oc1cc(Cl)ccc1Cl | 6.9 | inactive
7 | CCOc1nn(-c2ccc(C3CC3)nn2)c(C)c1Oc1ccccc1C(F)(F)F | 6.8 | inactive
8 | Cc1c(Oc2cccc(F)c2F)c(OC(C)C)nn1-c1ccc(C2CC2)nn1 | 7.4 | inactive
9 | Cc1c(Oc2c(F)cccc2F)c(OC(C)C)nn1-c1cnc(C2CC2)cn1 |  | inactive
10 | CCOc1nn(-c2ccc(C(C)C)cn2)c(C)c1Cc1ccccc1 | 5.9 | inactive
11 | CCc1nnc(-n2nc(OC(C)C)c(Oc3c(F)cccc3F)c2C)nc1O | 7.6 | inactive
12 | Cc1c(Oc2c(F)cccc2F)c(OC(C)C)nn1-c1ccc(C(C)(F)F)cn1 | 7.1 | inactive
13 | CCOc1nn(-c2ccc(C3CC3)cn2)c(C)c1Oc1cccc(C(F)(F)F)c1 | 7.1 | inactive
14 | CCOc1nn(-c2ccc(Br)cn2)c(C)c1Cc1ccccc1 | 5.3 | inactive
15 | CCOc1nn(-c2ncc(Br)cc2F)c(C)c1Cc1ccccc1 | 5.9 | inactive
16 | Cc1c(Oc2cccc(F)c2F)c(OC(C)C)nn1-c1ccc(C2CC2)cn1 | 7.4 | inactive
17 | CCOc1nn(-c2ccc(C3CC3)cn2)c(C)c1Oc1ccccc1Br | 7.8 | inactive
18 | CCOc1nn(-c2cccc(C(F)(F)F)n2)c(C)c1Cc1ccccc1 | <5 | inactive
19 | CCOc1nn(-c2ccc(C(=O)OC)cn2)c(C)c1Cc1ccccc1 | <5 | inactive
20 | CCOc1nn(-c2ccc(C3CC3)cn2)c(C)c1Oc1ccccc1 | 7 | inactive
21 | CCOc1nn(-c2ccc(C(C)=O)cn2)c(C)c1Cc1ccccc1 | <5 | inactive
22 | Cc1c(Oc2c(F)cccc2F)c(OC(C)C)nn1-c1ncc(C2CC2)cc1C#N | 8.1 | inactive
23 | CCOc1nn(-c2ccc(C(C)(C)O)cn2)c(C)c1Cc1ccccc1 | 5.3 | inactive
24 | CCOc1nn(-c2ccc(C3CC3)cn2)c(C)c1Oc1cc(Cl)ccc1Cl | 7.1 | inactive
25 | CCOc1nn(-c2ccc(C3CC3)cn2)c(C)c1Oc1ccccc1F | 7.7 | inactive
26 | Cc1c(Oc2c(F)cccc2F)c(OC(C)C)nn1-c1cnc(C2CC2)nc1 | 6.8 | inactive

Row | Compound | pMIC50 (Measles morbillivirus) | growth inhibition (GI) (Plasmodium falciparum)
27 | CCOc1nn(-c2ccc(C3CC3)nn2)c(C)c1Oc1ccccc1Cl | 7.1 | inactive
28 | Cc1c(Oc2ccc(F)cc2F)c(OC(C)C)nn1-c1ccc(C2CC2)nn1 | 6.4 | inactive
29 | Cc1c(Oc2c(F)cccc2F)c(OC(C)C)nn1-c1ccc(Br)cn1 | 6.3 | inactive
30 | CCOc1nn(-c2cc(C)ccn2)c(C)c1Cc1ccccc1 | 5.4 | inactive
31 | Cc1c(Oc2cccc(F)c2)c(OC(C)C)nn1-c1ccc(C2CC2)nn1 | 6.4 | inactive
32 | CCOc1nn(-c2ccc(C3CC3)cn2)c(C)c1Oc1ccc(C(F)(F)F)cc1 | 5.3 | inactive
33 | CCCc1cnc(-n2nc(OC(C)C)c(Oc3c(F)cccc3F)c2C)c(F)c1 | 6.7 | inactive
34 | Cc1ccc(-n2nc(OC(C)C)c(Oc3c(F)cccc3F)c2C)nc1 | 7.6 | inactive
35 | CCOc1nn(-c2ncc(C3CC3)cc2F)c(C)c1Cc1ccccc1 | 7 | inactive
36 | Cc1c(Oc2c(F)cccc2F)c(OC(C)C)nn1-c1ccccn1 | <5 | inactive
37 | CCOc1nn(-c2ccc(C3CC3)cn2)c(C)c1Oc1cc(Cl)cc(Cl)c1 | 6.9 | inactive
38 | CCOc1nn(-c2ncccc2C)c(C)c1Cc1ccccc1 | <5 | inactive
39 | Cc1c(Oc2ccccc2F)c(OC(C)C)nn1-c1ccc(C2CC2)nn1 | 7.4 | inactive
40 | CCOc1nn(-c2ccccn2)c(C)c1Cc1ccccc1 | <5 | inactive
41 | Cc1c(Oc2ccc(F)cc2)c(OC(C)C)nn1-c1ccc(C2CC2)cn1 [IPP/CNRS-A019] | 5.9 | inactive
42 | CCOc1nn(-c2ccc(C(F)(F)F)cn2)c(C)c1Cc1ccccc1 | 5.5 | inactive
43 | Cc1c(Oc2cccc(F)c2)c(OC(C)C)nn1-c1ccc(C2CC2)cn1 | 6.8 | inactive
44 | CCOc1nn(-c2ccc(C3CC3)nn2)c(C)c1Oc1cc(Cl)cc(Cl)c1 | 6.2 | inactive
45 | CCOc1nn(-c2ccc(C3CC3)nn2)c(C)c1Oc1cccc(Cl)c1Cl | 7.4 | inactive
46 | Cc1c(Oc2c(F)cccc2F)c(OC(C)C)nn1-c1ncc(C2CC2)cc1OCc1ccccc1 | 7 | inactive
47 | CCOc1nn(-c2ccc(C3CC3)nn2)c(C)c1Oc1ccc(C(F)(F)F)cc1 | 5.2 | inactive
48 | CCOc1nn(-c2cccc(C)n2)c(C)c1Cc1ccccc1 | <5 | inactive
49 | CCc1cnc(-n2nc(OC(C)C)c(Oc3c(F)cccc3F)c2C)c(F)c1 | 7.1 | inactive
50 | Cc1c(Oc2ccc(F)cc2)c(OC(C)C)nn1-c1ccc(C2CC2)nn1 | 5.6 | inactive
51 | Cc1c(Oc2c(F)cccc2F)c(OC(C)C)nn1-c1ncc(C2CC2)cc1N(C)C | 7.5 | inactive
52 | CCOc1nn(-c2ncc(C3CC3)cc2C#N)c(C)c1Cc1ccccc1 | 6.6 | inactive

Row | Compound | pMIC50 (Measles morbillivirus) | growth inhibition (GI) (Plasmodium falciparum)
53 | CC(=O)c1ccc(-n2nc(OC(C)C)c(Oc3c(F)cccc3F)c2C)nc1 | 6.6 | inactive
54 | CCOc1nn(-c2ccc(C3CC3)nn2)c(C)c1Oc1cccc(C(F)(F)F)c1 | 6.4 | inactive
55 | CCOc1nn(-c2ccc(Cl)cn2)c(C)c1Cc1ccccc1 | 5.5 | inactive
56 | Cc1c(Oc2c(F)cccc2F)c(OC(C)C)nn1-c1ccc(C(C)(C)O)cn1 | 6.7 | inactive
57 | CCOc1nn(-c2ncccc2F)c(C)c1Cc1ccccc1 | 5.2 | inactive
58 | CCOc1nn(-c2ccc(C3CC3)nn2)c(C)c1Oc1ccccc1F | 7.7 | inactive
59 | CCOc1nn(-c2ccc(C3CC3)cn2)c(C)c1Cc1ccccc1 | 7 | inactive
60 | Cc1c(Oc2cc(F)ccc2F)c(OC(C)C)nn1-c1ccc(C2CC2)nn1 | 7 | inactive
61 | COc1ccc(-n2nc(OC(C)C)c(Oc3c(F)cccc3F)c2C)nc1 | 7.3 | inactive
62 | CCOc1ccc(-n2nc(OC(C)C)c(Oc3c(F)cccc3F)c2C)nn1 |  | inactive
63 | CCn1cnc(-n2nc(OC(C)C)c(Oc3c(F)cccc3F)c2C)c1 |  | inactive
64 | CCOc1nn(-c2ccc(C3CC3)cn2)c(C)c1Oc1ccccc1Cl | 7.9 | inactive
65 | CCOc1nn(-c2ccc(C3CC3)cn2)c(C)c1Oc1cccc(Cl)c1Cl | 7.9 | inactive
66 | Cc1c(Oc2c(F)cccc2F)c(OC(C)C)nn1-c1cnc(Br)cn1 | 5.5 | inactive
67 | CCOc1nn(-c2ncc(Br)cc2C)c(C)c1Cc1ccccc1 | <5 | inactive
68 | Cc1c(Oc2c(F)cccc2F)c(OC(C)C)nn1-c1cnc(C(C)(C)C)nc1 |  | inactive
69 | CCc1ccc(-n2nc(OC(C)C)c(Oc3c(F)cccc3F)c2C)cn1 |  | inactive
70 | Cc1c(Oc2ccc(F)cc2F)c(OC(C)C)nn1-c1ccc(C2CC2)cn1 | 6.5 | inactive
71 | Cc1c(-c2ccc(-c3ccccc3F)cc2)nc2ccc(F)cc2c1C(=O)O |  | inactive
72 | Cc1cc(Br)cnc1-n1nc(OC(C)C)c(Oc2c(F)cccc2F)c1C | 5.9 | inactive
73 | CCOc1nn(-c2ccc(C3CC3)nn2)c(C)c1Oc1ccccc1Br | 7.2 | inactive
74 | COc1ccc(-n2nc(OC(C)C)c(Oc3c(F)cccc3F)c2C)cn1 |  | inactive
75 | CCOc1nn(-c2ccc(OC)cn2)c(C)c1Cc1ccccc1 | 5.5 | inactive
76 | CCOc1nn(-c2ccc(C3CC3)cn2)c(C)c1Oc1ccccc1C(F)(F)F | 7.3 | inactive
77 | Cc1c(Oc2c(F)cccc2F)c(OC(C)C)nn1-c1ccc(C(F)(F)F)cn1 | 6.5 | inactive
78 | Cc1c(Oc2c(F)cccc2F)c(OC(C)C)nn1-c1ccc(Cl)nn1 | 6.8 | inactive
